Results: ChEMBL document CHEMBL1201862, “PubChem BioAssay data set” (2004)
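Five concentrations, 48 hours, 96-well plates. GI50 = concentration required for 50% inhibition of growth.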 Calls of active or inactive are those of the source. No stated cut-off is given here; in the data, active = GI50 up to about 1.1 µM and inactive = higher.

Key:
Assay in all cases: growth of human tumour cells (NCI), 48 h
786-0 = tested on: 786-0
ACHN = tested on: ACHN
EKVX = tested on: EKVX
HCC 2998 = tested on: HCC 2998
HCT-15 = tested on: HCT-15
HL-60 = tested on: HL-60
Hs-578T = tested on: Hs-578T
M14 = tested on: M14
MCF7 = tested on: MCF7
MDA-MB-435 = tested on: MDA-MB-435
NCI-H23 = tested on: NCI-H23
NCI-H460 = tested on: NCI-H460
PC-3 = tested on: PC-3
SF-268 = tested on: SF-268
SK-MEL-28 = tested on: SK-MEL-28
SK-MEL-5 = tested on: SK-MEL-5
SR = tested on: SR
T47D = tested on: T47D
UACC-257 = tested on: UACC-257
UO-31 = tested on: UO-31

| SMILES | GI50 (786-0) | GI50 (ACHN) | GI50 (EKVX) | GI50 (HCC 2998) | GI50 (HCT-15) [µM] | GI50 (HL-60) | GI50 (Hs-578T) | GI50 (M14) | GI50 (MCF7) | GI50 (MDA-MB-435) | GI50 (NCI-H23) | GI50 (NCI-H460) | GI50 (PC-3) | GI50 (SF-268) | GI50 (SK-MEL-28) | GI50 (SK-MEL-5) | GI50 (SR) | GI50 (T47D) | GI50 (UACC-257) | GI50 (UO-31) |
| --- | --- | --- | --- | --- | --- | --- | --- | --- | --- | --- | --- | --- | --- | --- | --- | --- | --- | --- | --- | --- |
| COc1cc(/C=C2\CCC/C(=C\c3cc(OC)c(O)c(OC)c3)C2=O)cc(OC)c1O | 1.7 µM (inactive) | 1.22 µM (inactive) | 4.5 µM (inactive) | 1.35 µM (inactive) | 1.52 | 1.72 µM (inactive) | 3.75 µM (inactive) | 1.88 µM (inactive) | 3.12 µM (inactive) | 1.84 µM (inactive) | 1.35 µM (inactive) | 2.22 µM (inactive) | 3.35 µM (inactive) | 2.61 µM (inactive) | 2.69 µM (inactive) | 2.28 µM (inactive) | 3.8 µM (inactive) | 2.79 µM (inactive) | 3.42 µM (inactive) | 1.69 µM (inactive) |
| O=C1CCCc2cc3c(cc21)CC1(C3)Cc2ccc3c(c2C1)C(=O)CCC3 (centres undefined) | 30.7 µM (inactive) | 5.18 µM (inactive) | 46.7 µM (inactive) | 71.8 µM (inactive) | 45.2 | 5.18 µM (inactive) | 65.6 µM (inactive) | 12.7 µM (inactive) | 12.2 µM (inactive) | 4.91 µM (inactive) | 22.5 µM (inactive) | 26.5 µM (inactive) | 21.7 µM (inactive) | 21.9 µM (inactive) | 26.1 µM (inactive) | 2.2 µM (inactive) | 7.45 µM (inactive) | 24.1 µM (inactive) | 5.24 µM (inactive) | 32.4 µM (inactive) |
| COc1ccc(C2SC(=N)Nc3c2c(C)nn3C(=O)Cc2ccccc2)cc1 (centres undefined) | > 100 µM (inactive) | > 100 µM (inactive) | > 100 µM (inactive) | > 100 µM (inactive) | > 100 | > 100 µM (inactive) | > 100 µM (inactive) | > 100 µM (inactive) | > 100 µM (inactive) | > 100 µM (inactive) | > 100 µM (inactive) | > 100 µM (inactive) | > 100 µM (inactive) | > 100 µM (inactive) | > 100 µM (inactive) | > 100 µM (inactive) | > 100 µM (inactive) | > 100 µM (inactive) | > 100 µM (inactive) | > 100 µM (inactive) |
| COC(=O)C1Cc2c(C)cccc2C1=O (centres undefined) | > 100 µM (inactive) | > 100 µM (inactive) | > 100 µM (inactive) | > 100 µM (inactive) | > 100 | 29.4 µM (inactive) | > 100 µM (inactive) | > 100 µM (inactive) | > 100 µM (inactive) | > 100 µM (inactive) | > 100 µM (inactive) | > 100 µM (inactive) | > 100 µM (inactive) | > 100 µM (inactive) | > 100 µM (inactive) | > 100 µM (inactive) | 50.8 µM (inactive) | > 100 µM (inactive) | > 100 µM (inactive) | > 100 µM (inactive) |
| CC1=N[C@](C)(C2CC3C=CC2C3=O)COC1=O (some centres undefined) | > 100 µM (inactive) | > 100 µM (inactive) | > 100 µM (inactive) | > 100 µM (inactive) | – | > 100 µM (inactive) | > 100 µM (inactive) | > 100 µM (inactive) | > 100 µM (inactive) | > 100 µM (inactive) | > 100 µM (inactive) | > 100 µM (inactive) | > 100 µM (inactive) | > 100 µM (inactive) | > 100 µM (inactive) | > 100 µM (inactive) | > 100 µM (inactive) | > 100 µM (inactive) | > 100 µM (inactive) | > 100 µM (inactive) |
| Fc1cc2nc3n(c2cc1F)C(c1c(Cl)cccc1Cl)SC3 (centres undefined) | 15 µM (inactive) | 17.5 µM (inactive) | 18.4 µM (inactive) | 15.8 µM (inactive) | 17.5 | 15.5 µM (inactive) | 18.4 µM (inactive) | 15.7 µM (inactive) | 16.5 µM (inactive) | 15.1 µM (inactive) | 16.6 µM (inactive) | 13.7 µM (inactive) | 16.3 µM (inactive) | 16.5 µM (inactive) | 14 µM (inactive) | 7.82 µM (inactive) | 4.51 µM (inactive) | 14.3 µM (inactive) | 13.6 µM (inactive) | 15.8 µM (inactive) |
| COc1cccc(CCNc2c(C#N)c3n(c4ccccc4[n+]3C)c3ncccc23)c1 | 1.76 µM (inactive) | 16.7 µM (inactive) | 17.3 µM (inactive) | 1.93 µM (inactive) | 1.75 | 1.79 µM (inactive) | 7.31 µM (inactive) | 1.76 µM (inactive) | 1.52 µM (inactive) | 2.52 µM (inactive) | 20.3 µM (inactive) | 1.34 µM (inactive) | 14.4 µM (inactive) | 16.4 µM (inactive) | 20.2 µM (inactive) | 14.6 µM (inactive) | > 100 µM (inactive) | 6.59 µM (inactive) | 21.9 µM (inactive) | 4.53 µM (inactive) |
